Legend:
GSK3β = GSK3β (Homo sapiens, UniProt P49841); test: in vitro kinase profiling assay; format: biochemical
GSK3α = GSK3α (Homo sapiens, UniProt P49840); test: in vitro kinase profiling assay
Chain of GSK3α (P49840 2-483): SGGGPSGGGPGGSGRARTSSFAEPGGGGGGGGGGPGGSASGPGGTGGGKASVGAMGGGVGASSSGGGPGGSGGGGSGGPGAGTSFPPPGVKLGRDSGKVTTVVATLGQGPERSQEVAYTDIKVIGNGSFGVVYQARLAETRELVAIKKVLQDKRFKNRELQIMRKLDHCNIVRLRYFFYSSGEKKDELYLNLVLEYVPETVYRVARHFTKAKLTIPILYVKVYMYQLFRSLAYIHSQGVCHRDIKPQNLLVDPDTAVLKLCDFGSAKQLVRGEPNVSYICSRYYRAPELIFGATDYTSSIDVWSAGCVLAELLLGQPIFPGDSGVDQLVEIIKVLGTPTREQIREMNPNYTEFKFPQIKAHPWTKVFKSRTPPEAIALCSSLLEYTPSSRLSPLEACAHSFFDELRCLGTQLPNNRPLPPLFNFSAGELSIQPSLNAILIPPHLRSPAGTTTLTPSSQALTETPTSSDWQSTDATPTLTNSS

Chain of GSK3β (P49841 whole entry): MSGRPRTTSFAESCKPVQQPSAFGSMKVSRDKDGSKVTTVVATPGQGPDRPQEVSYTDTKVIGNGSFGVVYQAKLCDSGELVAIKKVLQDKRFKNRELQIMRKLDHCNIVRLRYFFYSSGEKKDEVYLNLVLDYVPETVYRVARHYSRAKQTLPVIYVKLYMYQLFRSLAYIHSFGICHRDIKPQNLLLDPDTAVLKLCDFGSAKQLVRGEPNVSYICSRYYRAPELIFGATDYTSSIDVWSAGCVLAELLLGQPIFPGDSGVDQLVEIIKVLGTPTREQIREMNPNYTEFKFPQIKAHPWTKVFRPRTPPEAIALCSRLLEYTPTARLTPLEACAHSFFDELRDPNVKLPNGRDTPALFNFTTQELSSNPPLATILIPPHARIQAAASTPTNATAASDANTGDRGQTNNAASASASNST

Nc1cccc(-c2cc3c(Oc4cccc(O)c4)ncnc3[nH]2)c1 [TWS119]
IC50 (GSK3β): 410 nM
IC50 (GSK3α): 88 nM

From PMC2812657 (Biochemical and biophysical research communications, 2009)
